System: male patients with ED
Experiment: RigiScan assessment during visual stimulus challenge in male patients with ED
Format: in vivo, human
Design: individual RAU value at the base / individual TAU value at the tip / individual RAU value at the tip / individual TAU value at the base: unit not given here
Description: The RigiScan Plus Monitor consists of two loops, one to be placed around the base of the penis and the other towards the tip. The ambulatory monitor uses tip and base penile loops that adjust by tightening slightly at discrete time intervals to measure and record penile rigidity and tumescence. Each loop contains a cable that moves freely inside a conduit. Each loop takes a measurement every 15 seconds. The loop gently tightens with a linear force of 4 ounces (114 g) and then immediately releases and the tissue rebounds to its unloaded state. The RigiScan Plus Monitor then takes a tumescence measurement. After the tumescence measurement is taken, it is compared to the previous samples. When a 6 mm increase in tumescence is detected, representing possible erectile activity, the RigiScan Plus Monitor takes a second measurement every 30 seconds. After tumescence is measured, the loops tighten a second time around the circumference of the penis with a linear force of 10 ounces (283.5 g). The RigiScan Plus Monitor takes a measurement when this force is applied to record a cross sectional response to radial compression. This is how rigidity is measured^1. Data were recorded on a monitor strapped to the thigh of the subjects/participants and downloaded onto a computer after the recording session. Subjects/participants were instructed on how to self-apply the RigiScan Plus Monitor by the Investigator and were advised to wear loose fitting clothing during the residential stay at the unit.
The study was an exploratory Phase II, randomised, placebo-controlled, double-blind, crossover study, investigating the effects of a single oral dose of IP2015 on erectile function in males with ED. A dose level of 10 mg was selected. Patients were enrolled into two cohorts. Both cohorts participated in two periods (Period 1 and Period 2) and received a single dose of IP2015 and a single dose of placebo.
Patients were assessed for efficacy using the RigiScan Plus Monitor during the stimulus challenge at predose and 1, 4 and 8-hour postdose on Day 1 of each treatment period.
The design of the stimulus challenge is outlined in FIG. 3. Predose and 1, 4 and 8-hour postdose, the patients were asked to watch a 20-minute digital clip in a private room. The digital clip consisted of a 10-minute neutral digital clip followed by a 10-minute digital clip consisting of heterosexual pornography. The study staff started the digital clip and then left the room, during which there was a 1-minute delay before the neutral digital clip commenced. The neutral and pornographic digital clip were different at each assessment. RigiScan assessments were recorded through the assessment period. The RigiScan Plus Monitor was applied for approximately 20 minutes on each occasion. The patient was semi-recumbent during the assessment.
The RigiScan measurement parameters were treated as efficacy outcomes and calculated in a similar fashion as in Example 2.
Effects of IP2015 on PD parameters were analysed with a generalised mixed regression model using a PD parameter as responsible variable, treatment (active and placebo), timepoint, period (1 and 2), sequence (active-placebo, placebo-active), interaction between treatment and timepoint as mixed effects, baseline measurements as a covariate, and patient as a random effect. This model was applied to each PD parameter. The treatment difference between active and placebo at different timepoints together with 95% CIs was derived from the generalized mixed regression model. For a continuous outcome, treatment difference was measured as the difference in LS mean; for a binary outcome, treatment difference was measured as the odds ratio. In case of model non-convergence due to small sample size at some timepoints, those timepoints could be pooled with neighbouring timepoints.

[1] = 10 mg, 4 hours postdose, N = 12
[2] = 10 mg, 4 hours postdose, statistically significant

COc1cc2ccc(OC3CC4CCC(C3)N4)cc2oc1=O (stereo not drawn) [IP2015, 7-[(8-azabicyclo[3.2.1]octan-3-yl)oxy]-3-methoxy-chromen-2-one]
baseline circumference at the tip, LS mean difference compared to placebo (10 mg, 1 hour postdose, 95% CI: 0.02, 1.05, significantly higher): 0.53 | Average event rigidity, Base, LS Mean Difference of IP2015 − Placebo (10 mg, 4 hours postdose): 6.92% | Average event rigidity, Tip, LS Mean Difference of IP2015 − Placebo (10 mg, 4 hours postdose): 10.21% | Average events of tumescence, Base, LS Mean Difference of IP2015 − Placebo (10 mg, 4 hours postdose): 1.05 | Average events of tumescence, Tip, LS Mean Difference of IP2015 − Placebo (10 mg, 4 hours postdose): 1.05 | Baseline circumference, Base, LS Mean Difference of IP2015 − Placebo (10 mg, 4 hours postdose): −0.28 | Baseline circumference, Tip, LS Mean Difference of IP2015 − Placebo (10 mg, 4 hours postdose): −0.21 | Event duration, LS Mean Difference of IP2015 − Placebo (10 mg, 4 hours postdose): 8.20 % of session | RAU, Base, LS Mean Difference of IP2015 − Placebo (10 mg, 4 hours postdose): 2.33 | TAU, Tip, LS Mean Difference of IP2015 − Placebo (10 mg, 4 hours postdose): 1.42 | Time rigid 80-100%, Base, LS Mean Difference of IP2015 − Placebo (10 mg, 4 hours postdose): 0.03 | Total event duration, LS Mean Difference of IP2015 − Placebo (10 mg, 4 hours postdose): 0.05 min | Total events, LS Mean Difference of IP2015 − Placebo (10 mg, 4 hours postdose): 0.03 | time rigid 80%-100% at the tip, RAU at the tip and TAU at the base versus placebo (10 mg, 4 hours postdose): statistically significant compared to placebo | patients appearing to respond to treatment (individual RAU and TAU values) (10 mg, 4 hours postdose, 12 patients): 3 | Average event rigidity, Base, Mean (SD) [1]: 20.83 (30.61) % | Average event rigidity, Tip, Mean (SD) [1]: 19.58 (29.42) % | Average events of tumescence, Base, Mean (SD) [1]: 3.49 (4.35) | Average events of tumescence, Tip, Mean (SD) [1]: 3.33 (4.16) | Baseline circumference, Base, Mean (SD) [1]: 7.21 (1.54) | Baseline circumference, Tip, Mean (SD) [1]: 6.82 (1.16) | Event duration, Mean (SD) [1]: 17.75 (27.72) % of session | RAU, Base, Mean (SD) [1]: 3.50 (6.82) | RAU, Tip, Mean (SD) [1]: 3.25 (6.25) | TAU, Base, Mean (SD) [1]: 2.83 (4.97) | TAU, Tip, Mean (SD) [1]: 2.17 (3.59) | Time rigid 80-100%, Base, Mean (SD) [1]: 0.04 (0.11) | Time rigid 80-100%, Tip, Mean (SD) [1]: 0.04 (0.10) | Total event duration, Mean (SD) [1]: 0.09 (0.14) mins | Total events, Mean (SD) [1]: 0.42 (0.51) | RAU, Tip, LS Mean Difference of IP2015 − Placebo [2]: 2.54 | TAU, Base, LS Mean Difference of IP2015 − Placebo [2]: 1.95 | Time rigid 80-100%, Tip, LS Mean Difference of IP2015 − Placebo [2]: 0.03 | individual RAU value at the base (Patient 176, 4 hours postdose): 21 | individual RAU value at the tip (Patient 176, 4 hours postdose): 19 | individual TAU value at the base (Patient 176, 4 hours postdose): 14 | individual TAU value at the tip (Patient 176, 4 hours postdose): 8 | individual RAU value at the base (Patient 177, 4 hours postdose): 14 | individual RAU value at the tip (Patient 177, 4 hours postdose): 13 | individual TAU value at the base (Patient 177, 4 hours postdose): 11 | individual TAU value at the tip (Patient 177, 4 hours postdose): 9 | individual RAU value at the base (Patient 191, 4 hours postdose): 4 | individual RAU value at the tip (Patient 191, 4 hours postdose): 5 | individual TAU value at the base (Patient 191, 4 hours postdose): 7 | individual TAU value at the tip (Patient 191, 4 hours postdose): 7

Reference: patent publication US20260216166A1, “COMPOUND FOR TREATMENT OF ERECTILE DYSFUNCTION” (Initiator Pharma A/S, priority 2023, published 2026)
